Patent US20180028478A1, “ANTIVIRAL COMPOSITIONS DIRECTED AGAINST THE NUCLEOPROTEIN OF INFLUENZA VIRUSES” (priority 2011, published 2018)
Values joined by “and” are separate entries in the source; they are usually repeats but may differ in a detail not shown here. Equal values may be shown once. Read-outs that look alike come from different tables or passages of the source.

What was measured:
H3N2 virus A/Udorn = details: MTT 24 h; A/Udorn MOI 10^−1; 100 μM
Influenza A/WSN/33 virus = assay: microbe, parasite or virus in culture; type: cell-based, Influenza A/WSN/33 (H1N1); details: for IC50: Influenza A virus, WSN, MDCK, read-out: IC50 decrease × 10 viral titer/control (n = 2)
Influenza A/PR8/34 virus = tested on: Influenza A/PR8/34 virus; parameters: species or system Balb/C mice; details: mouse, in vivo

SMILES	IC10 decrease × 10 viral titer/control (n = 2) (Influenza A/WSN/33 virus)	viral titer decrease, Naproxen vs Tamiflu (Influenza A/WSN/33 virus)	Viral titer Pfu/ml MDCK cells (Influenza A/WSN/33 virus; 50 μM)	IC50 (Influenza A/WSN/33 virus; 24 h) [µM]	other results
COc1ccc2cc(C(C)C(=O)O)ccc2c1 (stereo not shown) [Naproxen]	~50 μM	viral titer decreases similarly	–	–	Protection % (H3N2 virus A/Udorn): 85 ± 2%; decrease of viral titers with concentration (Influenza A/WSN/33 virus): the greater the concentration in Naproxen, the quicker the decrease of the viral titers; IC50 (Influenza A/WSN/33 virus; 48 h): ~10 µM; weight loss (Influenza A/PR8/34 virus): 19%; decrease factor of viral titer in lungs vs untreated infected controls (Influenza A/PR8/34 virus; ip): ~42 factor; infectious outbreaks in the cell layer and dead cells (H1N1 WSN strain): reduced the number and the size of the infectious outbreaks; localisation of nucleoprotein (H1N1 WSN strain): has not modified the localisation of nucleoprotein
CCOC(=O)C1=C[C@@H](OC(CC)CC)[C@H](NC(C)=O)[C@@H](N)C1 [Tamiflu, oseltamivir]	–	viral titer decreases similarly	–	–	decrease factor of viral titer in lungs vs untreated infected controls (Influenza A/PR8/34 virus): ~100 factor
O=C(O)c1ccc(C=Nn2c(S)nnc2-c2ccc(Cl)cc2Cl)cc1 [compound 59]	~30 μM	–	5.5 ± 2.5 × 10^5 Pfu/ml	~5	–
Cc1ccc(-c2nnc(S)n2/N=C/c2ccc(C(=O)O)cc2)cc1 [compound 72]	~20 μM and ~35 μM	–	7.6 ± 4.0 × 10^5 Pfu/ml and 3.9 ± 1.6 × 10^6 Pfu/ml	~5	–
COc1ccc(-c2nnc(S)n2N=Cc2ccc(C(=O)O)cc2)cc1 [compound 88]	No effect	–	–	–	Viral titer Pfu/ml MDCK cells (Influenza A/WSN/33 virus; 5 μM): 1-4 × 10^7 Pfu/ml
